Assays:
CYP1A2 = assay: CYP induction test (quantitative RT-PCR) in PHH; format: cell-based, human; settings: 50 μM omeprazole, 48 hours, versus DMSO
Experimental: (§1) PHH was treated with 50 μM omeprazole, 500 μM phenobarbital, or 20 μM rifampicin (all of which are from FUJIFILM Wako Pure Chemical Corporation) for 48 hours. Each of these drugs is known to induce CYP1A2, 2B6, and 3A4. In order to measure the inducibility of CYP1A2, 2B6, and 3A4, the expression level of CYP was measured by quantitative RT-PCR. The expression level of the target gene was standardized with the expression level of GAPDH. The inducibility was calculated as a change in expression level in terms of folds in cells treated with DMSO.
(§2) PHH was seeded in each of a microfluidic device and a polystyrene plate and cultured for 24 hours. Subsequently, the cultured PHH was treated with 50 μM omeprazole, 500 μM phenobarbital, or […] rifampicin for 48 hours. […] Subsequently, the expression level of each CYP gene was measured by quantitative RT-PCR. Cells treated with DMSO (final concentration: 0.1%) were used as a control.

CYP3A = format: in vitro ADME, human
Experimental: The supernatant was recovered 1, 2, and 4 hours after the treatment with the substrate. At the time of recovering the supernatant, an equal volume of a culture medium containing the substrate was added.
A fraction (20 μL) of the recovered supernatant was mixed with 20 μL of Milli-Q water and 120 μL of acetonitrile containing […] 10 nM of an internal standard (fluvastatin, FUJIFILM Wako Pure Chemical Corporation). After centrifugation, 100 μL of the supernatant was analyzed by LC-MS/MS.
Chromatography was carried out using a Nexera X2 LC system (Shimadzu Corporation), and quantification was carried out using QTRAP 5500+ (AB Sciex LLC).
A mass spectrometer was set to an MRM mode and operated with an electrospray ionization source.

FXR = assay: Change in bile acid signaling upon drug exposure in PHH (quantitative RT-PCR); settings: 100 μM CDCA and 2.5 μM GW4046, 72 hours, PHH in microfluidic device or polystyrene plate
Experimental: Subsequently, a change in bile acid signaling upon drug exposure was examined.
Subsequently, the gene expression levels of BSEP and CYP7A1 were measured by quantitative RT-PCR.

[1] = Drug absorption in microfluidic device without PHH (LC-MS/MS); format: physicochemical; settings: for Drug absorption rate: Microfluidic device/Polystyrene plate; for Drug absorption rate / concentration as % of initial concentration: without PHH; for concentration during the observation period: 1 to 4 hours, microfluidic device; for concentration as % of initial concentration: 1 hour after the injection into the microfluidic device; for absorption in the microfluidic device: PDMS device without PHH
Experimental: (§3) A culture medium containing MDZ, DIC, PHE, BUF, or MPHT was added to a microfluidic device or a polystyrene plate. Subsequently, 1, 2, and 4 hours after the addition of the drugs, the amounts of these drugs were quantified with LC-MS/MS.
as §3, with “APAP (a CYP1A2 metabolite), 1OH-MDZ (a CYP3A4 metabolite), 4OH-DIC (a CYP2C9 metabolite), 4OH-MPHT (a CYP2C19 metabolite),” for “MDZ, DIC, PHE, BUF,”, “1OH-BUF (a CYP2D6 metabolite)” for “MPHT”
Subsequently, it was examined whether the absorption of the drugs and metabolites could be predicted by the relative physicochemical characteristics between the microfluidic device and the polystyrene plate. The drug absorption rate between the microfluidic device and the polystyrene plate was calculated. Subsequently, a correlation coefficient R^2 value between the drug absorption rate and the physicochemical characteristics (DiffCoef, M Log P, S+Log P, S+log D, MWt, and tPSA) of the drugs was calculated.

MRP2 = biological target: T1, MRP2 (Homo sapiens, UniProt Q92887); assay: CDFDA transport assay; format: cell-based; settings: 10 μM CDFDA in upper layer flow path, 3 hours, co-culturing with HuCCT1 cells versus PHH only
T1 construct: endogenous in cells; host or cells: primary human hepatocytes (PHH), alone or co-cultured with HuCCT1 cells, in the microfluidic device
Experimental: 10 μM of 5(6)-carboxy-2′,7′-dichlorofluorescein diacetate (CDFDA) was added to the upper layer flow path. After 3 hours, the culture supernatant from the lower layer flow path was recovered. The fluorescence intensity of 5(6)-carboxy-2′,7′-dichlorofluorescein (CDF) in the recovered culture supernatant, which is a metabolite of CDFDA, was measured.
Subsequently, 5(6)-carboxy-2′,7′-dichlorofluorescein diacetate (CDFDA) was added to the upper layer flow path of the intrahepatic bile duct chip, and after 3 hours, the fluorescence of the culture medium in the lower layer flow path was measured. In living cells, CDFDA is hydrolyzed to 5(6)-carboxy-2′,7′-dichlorofluorescein (CDF). CDF is a substrate of MRP2, which is a transporter. Therefore, the CDF transported to the lower layer flow path can be quantified by measuring the fluorescence intensity.
FIG. 13 is a graph showing results of measuring the fluorescence intensity.

[2] = system: GFP-expressing HuCCT1 cells; assay: Formation of tubular bile duct-like structure in microfluidic device; format: cell-based, human; settings: 10 ng/mL in culture medium, 4 days, lower layer flow path
Experimental: GFP-expressing HuCCT1 cells were seeded in the lower layer flow path of the microfluidic device in the presence or absence of 10 ng/mL of DLL1 or DLL4, and after 4 days, a cross-sectional image of the microfluidic device was acquired.

CYP2B6 = assay: CYP induction test (quantitative RT-PCR) in PHH; settings: 500 μM phenobarbital, 48 hours, versus DMSO
Experimental: as §1, §2

[3] = Measurement of active TGF-β1 in culture supernatant (ELISA), adsorption to culture vessel; settings: 100 ng/mL TGF-β1, 48 hours
Experimental: PHH was treated with 100 ng/mL of TGF-β1 for 48 hours. In order to quantify active TGF-β1 in the supernatant, the culture medium was recovered and analyzed according to the instruction manual using a TGF beta-1 Human ELISA Kit (BMS249-4, Thermo Fisher Scientific, Inc.). The amount of active TGF-β1 was calculated based on each standard.
(§4) Subsequently, the cellular response of the PHH cultured in the microfluidic device and the polystyrene plate to a recombinant protein was examined. Specifically, PHH was treated with transforming growth factor-β1 (TGF-β1), which is one of the causative factors of hepatic fibrosis. The PHH was exposed to 100 ng/mL TGF-β1 for 48 hours. Subsequently, the amount of TGF-β1 in the cell culture supernatant was measured according to ELISA.
FIG. 35 is a graph showing the results of ELISA. In FIG. 35, “top” indicates the results for the upper layer flow path, and “bottom” indicates the results for the lower layer flow path.

PHH = assay: Fibrosis marker gene expression in PHH treated with TGF-β1 (quantitative RT-PCR); format: cell-based, human
Experimental: as §4
Subsequently, the gene expression levels of ACTA2, COL1A1, and TIMP1, which are fibrosis markers, were measured by quantitative RT-PCR.
In FIG. 36, the vertical axis indicates a relative value in a case where the gene expression level in the cells (control) treated with phosphate buffered saline (PBS) is set to 1. […] The data is indicated as average value±standard deviation (n=3).
Subsequently, the gene expression level of TGF-β type II receptor (TGFBR2) was measured. […] Subsequently, the gene expression level of TGFBR2 was measured by quantitative RT-PCR.

CYP3A4 = assay: Measurement of CYP activity using CYP substrates in PHH (MDZ to 1OH-MDZ); format: in vitro ADME, human
Experimental: The LC-MS/MS analysis was carried out to measure the activity of CYP. Prior to a CYP substrate treatment, PHH was cultured in DMEM containing 10 mM HEPES for 30 minutes. Subsequently, the PHH was cultured in a culture medium containing 5 μM MDZ (the metabolite thereof is 1OH-MDZ), 50 μM MPHT (the metabolite thereof is 4OH-MPHT), 5 μM DIC (the metabolite thereof is 4OH-DIC), 10 μM BUF (the metabolite thereof is 1OH-BUF), or 50 μM PHE (the metabolite thereof is APAP). The supernatant was recovered 1, 2, and 4 hours after the treatment with the substrate. At the time of recovering the supernatant, an equal amount of a culture medium containing the substrate was added.
The recovered supernatant was mixed with acetonitrile (FUJIFILM Wako Pure Chemical Corporation) containing an equal volume of 5 μM propranolol (internal standard). The specimen was filtered through a Cosmonice Filter W (Nacalai Tesque, Inc.) having a pore size of 0.45 μm, the supernatant was subsequently analyzed by LC-MS/MS, and the concentration of the metabolite was measured based on the standard curve. The LC-MS/MS analysis was carried out using LCMS-8040 (Shimadzu Corporation).
Subsequently, the drug metabolic activities of the PHH cultured in the PDMS device and the PS plate were compared. First, PHH was treated with each of MDZ, DIC, PHE, BUF, and MPHT, which are substrates of CYP3A4, CYP2C9, CYP1A2, CYP2D6, and CYP2C19. Subsequently, after 1, 2, and 4 hours, the amounts of the metabolites (OH-MDZ, 4OH-DIC, APAP, 1OH-BUF, and 4OH-MPHT) generated in the culture medium were measured by LC-MS/MS.

[4] = system: PHH and the HuCCT1 cells of the intrahepatic bile duct chip; assay: Response to bile acid signaling in intrahepatic bile duct chip (quantitative RT-PCR); format: cell-based, human; settings: 100 μM CDCA, 72 hours, versus DMSO
Experimental: In addition, the response to bile acid signaling in PHH was examined. Chenodeoxycholic acid (CDCA) is one of the major bile acids. […] In addition, a specimen treated with dimethyl sulfoxide (DMSO) instead of CDCA was also prepared for comparison. Subsequently, the gene expression levels of BSEP, NTCP, and CYP7A1 were measured according to quantitative RT-PCR. […] In FIG. 9, the vertical axis indicates a relative value of the expression level of each gene in a case where the expression level in a case where DMSO has been treated is set to 1. […] All data are indicated as average value±standard deviation (n=3).

[5] = microfluidic device versus polystyrene plate
[6] = 100 ng/mL TGF-β1, 48 hours, microfluidic device or polystyrene plate, versus PBS

T1 sequence (Q92887 whole entry): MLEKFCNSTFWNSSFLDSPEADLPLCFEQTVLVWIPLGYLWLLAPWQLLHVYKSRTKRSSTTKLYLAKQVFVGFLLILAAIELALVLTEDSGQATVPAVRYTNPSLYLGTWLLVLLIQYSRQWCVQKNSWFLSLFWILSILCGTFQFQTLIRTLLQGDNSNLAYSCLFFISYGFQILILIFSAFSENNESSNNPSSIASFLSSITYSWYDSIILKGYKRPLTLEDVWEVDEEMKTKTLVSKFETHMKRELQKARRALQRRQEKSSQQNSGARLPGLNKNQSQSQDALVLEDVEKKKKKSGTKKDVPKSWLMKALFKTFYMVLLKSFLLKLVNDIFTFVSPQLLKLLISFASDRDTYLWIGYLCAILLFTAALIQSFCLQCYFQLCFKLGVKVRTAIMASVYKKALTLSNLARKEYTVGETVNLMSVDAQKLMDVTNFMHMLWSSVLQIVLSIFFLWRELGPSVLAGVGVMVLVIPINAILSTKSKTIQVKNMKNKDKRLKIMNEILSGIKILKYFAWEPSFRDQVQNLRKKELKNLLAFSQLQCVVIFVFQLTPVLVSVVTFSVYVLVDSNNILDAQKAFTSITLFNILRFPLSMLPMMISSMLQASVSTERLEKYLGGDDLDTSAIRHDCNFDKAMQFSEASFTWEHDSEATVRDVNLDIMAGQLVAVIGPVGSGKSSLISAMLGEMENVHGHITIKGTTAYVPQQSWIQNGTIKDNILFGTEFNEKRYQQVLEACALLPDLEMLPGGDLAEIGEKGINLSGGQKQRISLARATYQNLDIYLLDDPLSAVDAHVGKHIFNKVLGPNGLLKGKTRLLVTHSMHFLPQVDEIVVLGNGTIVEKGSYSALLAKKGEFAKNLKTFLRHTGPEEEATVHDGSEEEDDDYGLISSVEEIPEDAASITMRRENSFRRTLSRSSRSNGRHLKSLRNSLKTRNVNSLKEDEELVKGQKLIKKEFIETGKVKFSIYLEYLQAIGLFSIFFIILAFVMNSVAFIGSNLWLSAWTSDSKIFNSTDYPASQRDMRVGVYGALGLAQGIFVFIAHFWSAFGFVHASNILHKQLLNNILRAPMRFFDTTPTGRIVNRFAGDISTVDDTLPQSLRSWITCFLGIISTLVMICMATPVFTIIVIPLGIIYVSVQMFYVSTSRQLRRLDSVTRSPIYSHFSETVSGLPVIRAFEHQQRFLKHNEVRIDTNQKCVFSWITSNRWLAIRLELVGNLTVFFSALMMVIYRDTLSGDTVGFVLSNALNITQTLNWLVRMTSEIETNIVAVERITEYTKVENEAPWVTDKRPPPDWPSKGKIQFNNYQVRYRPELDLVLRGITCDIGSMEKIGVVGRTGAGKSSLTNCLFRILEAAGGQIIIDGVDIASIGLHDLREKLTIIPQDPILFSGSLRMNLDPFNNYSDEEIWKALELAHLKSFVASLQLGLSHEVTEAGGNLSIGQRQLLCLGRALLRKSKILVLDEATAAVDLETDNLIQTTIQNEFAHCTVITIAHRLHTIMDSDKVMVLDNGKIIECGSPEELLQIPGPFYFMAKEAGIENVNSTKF

## COc1ccc2[nH]c([S+]([O-])Cc3ncc(C)c(OC)c3C)nc2c1 (centres unmarked) [omeprazole]
CYP1A2
  CYP1A2 expression level: induced in both the microfluidic device and the polystyrene plate

## CCCC(C(=O)OCCN(CC)CC)(c1ccccc1)c1ccccc1 [SKF-525A]
CYP3A; PHH, 100 μM SKF-525A, 1 μM ATV
  formation of 2OH-ATV on treatment with pan-CYP inhibitor: significantly reduced

## CC(C)c1onc(-c2c(Cl)cccc2Cl)c1COc1ccc(/C=C/c2cccc(C(=O)O)c2)c(Cl)c1 [GW4046]
FXR
  BSEP gene expression level: increased in both the PHH cultured in the microfluidic device and the PHH cultured on the polystyrene plate

## CCOc1ccc(NC(C)=O)cc1 [Phenacetin, phenacetin]
[1]
  Drug absorption rate: 0.9569

## CC[C@@]1(c2ccccc2)NC(=O)N(C)C1=O [S-mephenytoin]
[1]
  Drug absorption rate: 0.9897

## 5(6)-carboxy-2′,7′-dichlorofluorescein [CDF]
MRP2
  amount of the CDF transported to the lower layer flow path: increases

## CCc1cccc2cc(C(O)CNC(C)(C)C)oc12 (centres unmarked) [Bufuralol, bufuralol]
[1]
  concentration during the observation period: constant
  concentration as % of initial concentration: 30%
  Drug absorption rate: 3.327
  absorption in the microfluidic device: absorbed in the microfluidic device

## DLL4: recombinant human Delta Like Canonical Notch Ligand 4, lumenization factor
[2]
  formation of the tubular bile duct-like structure: accelerates the formation of the tubular bile duct-like structure

## CCC1(c2ccccc2)C(=O)NC(=O)NC1=O [phenobarbital]
CYP2B6
  CYP2B6 expression level: induced in both the microfluidic device and the polystyrene plate

## CC(C)c1c(C(=O)Nc2ccccc2O)c(-c2ccccc2)c(-c2ccc(F)cc2)n1CCC(O)CC(O)CC(=O)O (centres unmarked) [2OH-ATV, 2-hydroxyatorvastatin]
CYP3A; PHH, 1 μM ATV, 1, 2 and 4 hours
  formation of 2OH-ATV: observed in a time-dependent manner
CYP3A; [5]
  formation rate of 2OH-ATV in PHH cultured in the microfluidic device: partially reduced

## TGF-β1: recombinant protein, one of the causative factors of hepatic fibrosis
[3]
  adsorption of TGF-β1 to the microfluidic device: has not allowed the adsorption
  adsorption of TGF-β1 to the polystyrene plate: allowed the adsorption
PHH; [6]
  ACTA2 gene expression level: increased
  COL1A1 gene expression level: increased
  TIMP1 gene expression level: increased
PHH; TGF-β1 treatment, PHH in microfluidic device and polystyrene plate
  TGFBR2 gene expression level: not changed

## OCc1ncc2n1-c1ccc(Cl)cc1C(c1ccccc1F)=NC2 [1-hydroxymidazolam]
[1]
  concentration during the observation period: constant
  Drug absorption rate: 1.714
  absorption in the microfluidic device: also absorbed in the PDMS device
CYP3A4; PHH, 5 μM MDZ
  formation rate of metabolite, microfluidic device versus polystyrene plate: similar

## O=C(O)Cc1ccccc1Nc1c(Cl)cccc1Cl [Diclofenac, diclofenac]
[1]
  Drug absorption rate: 1.043

## Cc1ncc2n1-c1ccc(Cl)cc1C(c1ccccc1F)=NC2 [Midazolam, midazolam]
[1]
  concentration during the observation period: constant
  concentration as % of initial concentration: 9.5%
  Drug absorption rate: 10.41
  absorption in the microfluidic device: absorbed in the microfluidic device
CYP3A4; PHH, 5 μM MDZ
  amount of the metabolite, microfluidic device versus polystyrene plate: smaller
CYP3A4; [5]
  clearance (rate of drug metabolite formation divided by concentration of the drug in the culture medium): no difference

## C[C@H](CCC(=O)O)[C@H]1CC[C@H]2[C@@H]3[C@H](O)C[C@@H]4C[C@H](O)CC[C@]4(C)[C@H]3CC[C@]12C [CDCA, chenodeoxycholic acid]
FXR
  CYP7A1 gene expression level: decreased only in the microfluidic device
[4]
  BSEP gene expression level: increased
  CYP7A1 gene expression level: decreased
  NTCP gene expression level: increased
